Test results taken from patent publication US12661396B2, “Selective targeting of the TREML1/MD2 interaction by small peptide or protein and its use for vaccine adjuvants” (Ascendo Biotechnology, Inc., priority 2020, dated 2026).

Legend:
BMDCs = assay: Mouse bone marrow derived dendritic cell maturation (flow cytometry); type: cell-based; conditions: FIG. 8
Description: Femurs and tibiae were harvested from female C57BL/6 mice and extra muscle tissues were removed. Bones were disinfected in 70% ethanol, then rinsed with RPMI-1640 medium, and both ends were cut to flush out the bone marrow with RPMI-1640 medium using 26 G needle syringes. To disperse cell clumps, bone marrow suspension was pipetted in-and-out several times and washed twice with RPMI-1640 medium by centrifugation. […] At day 0, after cell counting, the leukocytes were seeded at a concentration of 2×10^6 cells/10 ml R10 medium containing 200 U/ml rmGM-CSF in sterile […] Petri dish and incubated at 37° C. with 5% CO2. At day 3, another 10 ml of R10 medium containing 200 U/ml rmGM-CSF was added. At days 6, one half of the supernatant was taken out and centrifuged to collect cell pellet, which was resuspend in original plate with 10 ml of R10 medium containing 200 U/ml GM-CSF. At day 8, non-adherent cells were collected by gentle pipetting and centrifuged at 300 g for 5 min. To obtain purer dendritic cells, the population of macrophages (F4/80^high) was removed with Anti-F4/80 MicroBeads UltraPure (130-110-443, Miltenyi Biotec, Bergisch Gladbach, Germany) following the manufacturer's instructions. Briefly, cell pellet was resuspended and mixed well in MACS buffer with Anti-F4/80 MicroBeads UltraPure. This mixture was incubated for 15 min in the dark in 4° C. After washing cells with MACS buffer, cells were resuspended in MACS buffer, filtered with 30 μm nylon mesh, and added to the MACS buffer rinsed column to separate F4/80^+ cells. Unlabeled cells were collected and washed with R10 medium. To freeze the cells, cell pellet was counted and resuspended at a concentration 1×10^7 cell in 2 ml CELLBANKER2 (#11891, ZENOAQ) per cryopreservation vial and stored at −80 degree Celsius.
BMDCs were thawed for the DC maturation experiments. These cells were seeded at 1×10^6 cells/2 ml in R10 medium containing 200 U/ml rmGM-CSF in wells of a 6-well tissue culture dish and cultured to recover the cell viability at 37° C. with 5% CO2. After 6 hr, BMDCs were treated with various fragments of mTREML1 protein and cultured in 37° C. with 5% CO2. On the next day, resuspended cells were collected and analyzed by flow cytometry.
Cells were centrifuged at 1800 rpm for 3 min in PBS containing 1% FBS and 0.1% sodium azide (PBSBA), and then divided at a concentration of 1×10^5 cells/100 ul PBSBA in flow tube. Before staining the surface marker of DC, cells were treated with mouse Fc blocker to avoid antibody non-specific binding at room temperature for 30 min. […] After PBSBA washing, samples were analyzed using the CytoFlex flow cytometer with the CytExpert software.

CT26 colon cancer cells = assay: CT26 colon carcinoma model, tumor vaccine with adjuvant; type: in vivo, BALB/c mice; conditions: combined with tumor antigen 5E-GP70-15/aluminum mixture, s.c. on days 6 and 13; FIG. 9B
Description: To test TREML1 ECD or its stalk as a vaccine adjuvant or immune booster, we use a CT26 colon carcinoma animal model. […] Briefly, CT26 colon cancer cells (3×10^5 cells) were injected subcutaneously into BALB/c mice on day 0. When the tumor grows to 30-100 mm^3 on day 6, tumor vaccines (tumor antigen 5E-GP70-15/aluminum mixture with or without mouse TREML1 stalk; 100 μL/mouse each time) were injected subcutaneously. The vaccinations were repeated on days 13. Tumor volumes were measured every 3-4 days. […] A DNA vaccine containing the gp70 gene has been used to induce protective immunity against CT26 cells. (J. Takeda et al., “Anti-tumor immunity against CT26 colon tumor in mice immunized with plasmid DNA encoding beta-galactosidase fused to an envelope protein of endogenous retrovirus,” Cell Immunol., (2000), 204(1): 11-18).
For the establishment of syngeneic murine colon cancer models, BALB/c mice were subcutaneously injected in the back with 3×10^5 CT26 cells per mouse. When the volume of the inoculated tumor reached 30-100 mm^3, mice were randomly divided into cohorts for different treatments. […] During each animal study, tumor dimensions were monitored with caliper measurements, and the tumor volumes were calculated using the equation: […], wherein length is the longest diameter of the tumor and the width is the shortest diameter. […]

mMD2 = biological target: T1, mMD2 (Mus musculus, UniProt Q9JHF9); assay: Solid phase binding assay, mMD2 to immobilized mTREML1 stalk; conditions: stalk coated 5 ug/ml; FIG. 3B
T1 sequence (Q9JHF9 19-160): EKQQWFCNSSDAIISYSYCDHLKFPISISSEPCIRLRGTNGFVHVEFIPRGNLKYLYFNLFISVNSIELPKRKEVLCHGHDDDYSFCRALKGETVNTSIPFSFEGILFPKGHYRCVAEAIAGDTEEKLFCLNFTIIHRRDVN
Description: For TREML1 or mTREML1 stalk binding to human or mouse MD2 protein, TREML1 stalk or mTREML1 stalk (5 ug/ml in PBS) was coated separately on a 96-well plate. Recombinant hTLR4, hMD2, hCD14, or mMD2 was each serially diluted and added to the plates. Anti-His tag antibody-HRP was used as a detection antibody to detect the protein binding.

## mTREML1 stalk: mouse TREML1 stalk polypeptide, SEQ ID NO:4, EGEEAEDEKETYRIGTGSLLEDPSLDPSASAGPHEFRRRENSIP, chemically synthesized (listed as Mus musculus)
BMDCs
  dendritic cell maturation effect compared with TNF-α: significantly stronger than those of TNF-α
BMDCs; analyzed the next day
  dendritic cell maturation (DC maturation markers CD40, CD86, CD80, MHC II): can trigger dendritic cell maturation
CT26 colon cancer cells
  tumor volume, vaccine with mTREML1 stalk as adjuvant: dramatic reduction in the tumor volumes
mMD2
  mouse MD2 binding to immobilized mTREML1 stalk: can bind to the immobilized TREML1 stalk and mTREML1 stalk
